Test results from publication PMC7486443, “Generation of Phenothiazine with Potent Anti-TLK1 Activity for Prostate Cancer Therapy” (iScience, 2020).

Assays:
Assay in all cases: biochemical
Conditions in all cases: KINOMEscan binding, percent of control; read-out: Table S4_SCANMAX REPORT - related to Fig. 1 / Percent Control
[1] = biological target: T1, ABL1(Q252H)-phosphorylated (Homo sapiens, UniProt P00519, Q252H); parameters: DiscoverX KINOMEscan scanMAX competition binding panel, single concentration, percent of control; remaining binding: dose or concentration left out as unconfirmed
T1 construct: phosphorylated
Excerpt: (§1) Certain PTH are potent inhibitors of TLK1 ([Ronald et al., 2013]), and by inference TLK2, as these proteins must homo- and hetero-dimerize for full activation ([Mortuza et al., 2018]), in addition to being highly similar in sequence and structure, and thus similarly targetable. […] Two noteworthy observations are that PTHs are structurally different from many known ATP competitive inhibitors, and that J54 was carefully designed based on considerations reported previously for the THD—the Kinomescan has confirmed that J54 is specific to TLKs. We should point out that although PTH were the first reported inhibitors of TLKs ([Ronald et al., 2013]), other inhibitors particularly of TLK2 have since been reported ([Kim et al., 2016]), some based on structure docking ([Mortuza et al., 2018]), although neither their potency and effects in vivo nor their potential off-target effects have not been reported as they were selected from libraries of kinase inhibitors. Supplementary file mmc2.xlsx: Table S4. SCANMAX Table, Related to Figure 1 Kinomescan of J54 inhibitory activity on human kinases.

AMPK-alpha1 = biological target: T2, AMPK-alpha1 (Homo sapiens, UniProt Q13131); parameters: DiscoverX KINOMEscan scanMAX competition binding panel, single concentration, percent of control; remaining binding: dose or concentration left out as unconfirmed
T2 construct: gene PRKAA1
Excerpt: as §1

FGFR2 = FGFR2 (Homo sapiens, UniProt P21802); parameters: DiscoverX KINOMEscan scanMAX competition binding panel, single concentration, percent of control; remaining binding: dose or concentration left out as unconfirmed
Excerpt: as §1

FLT3(ITD,D835V) = FLT3(ITD,D835V) (Homo sapiens, UniProt P36888, D835V/ITD); parameters: DiscoverX KINOMEscan scanMAX competition binding panel, single concentration, percent of control; remaining binding: dose or concentration left out as unconfirmed
Excerpt: as §1

GRK2 = GRK2 (Homo sapiens, UniProt P25098); parameters: DiscoverX KINOMEscan scanMAX competition binding panel, single concentration, percent of control; remaining binding: dose or concentration left out as unconfirmed
Excerpt: as §1

GRK7 = GRK7 (Homo sapiens, UniProt Q8WTQ7); parameters: DiscoverX KINOMEscan scanMAX competition binding panel, single concentration, percent of control; remaining binding: dose or concentration left out as unconfirmed
Excerpt: as §1

KIT(V559D,T670I) = KIT(V559D,T670I) (Homo sapiens, UniProt P10721, T670I/V559D); parameters: DiscoverX KINOMEscan scanMAX competition binding panel, single concentration, percent of control; remaining binding: dose or concentration left out as unconfirmed
Excerpt: as §1

LKB1 = biological target: T3, LKB1 (Homo sapiens, UniProt Q15831); parameters: DiscoverX KINOMEscan scanMAX competition binding panel, single concentration, percent of control; remaining binding: dose or concentration left out as unconfirmed
T3 construct: gene STK11
Excerpt: as §1

PFCDPK1(P.falciparum) = biological target: T4, PFCDPK1(P.falciparum) (Plasmodium falciparum, UniProt P62344); parameters: DiscoverX KINOMEscan scanMAX competition binding panel, single concentration, percent of control; remaining binding: dose or concentration left out as unconfirmed
T4 construct: gene CDPK1
Excerpt: as §1

PFTAIRE2 = biological target: T5, PFTAIRE2 (Homo sapiens, UniProt Q96Q40); parameters: DiscoverX KINOMEscan scanMAX competition binding panel, single concentration, percent of control; remaining binding: dose or concentration left out as unconfirmed
T5 construct: gene CDK15
Excerpt: as §1

PIK3CA(E542K) = PIK3CA(E542K) (Homo sapiens, UniProt P42336, E542K); parameters: DiscoverX KINOMEscan scanMAX competition binding panel, single concentration, percent of control; remaining binding: dose or concentration left out as unconfirmed
Excerpt: as §1

ROCK2 = ROCK2 (Homo sapiens, UniProt O75116); parameters: DiscoverX KINOMEscan scanMAX competition binding panel, single concentration, percent of control; remaining binding: dose or concentration left out as unconfirmed
Excerpt: as §1

TAOK2 = TAOK2 (Homo sapiens, UniProt Q9UL54); parameters: DiscoverX KINOMEscan scanMAX competition binding panel, single concentration, percent of control; remaining binding: dose or concentration left out as unconfirmed
Excerpt: as §1

TLK2 = TLK2 (Homo sapiens, UniProt Q86UE8); parameters: DiscoverX KINOMEscan scanMAX competition binding panel, single concentration, percent of control; remaining binding: dose or concentration left out as unconfirmed
Excerpt: as §1

TNK1 = TNK1 (Homo sapiens, UniProt Q13470); parameters: DiscoverX KINOMEscan scanMAX competition binding panel, single concentration, percent of control; remaining binding: dose or concentration left out as unconfirmed
Excerpt: as §1

DYRK1B = DYRK1B (Homo sapiens, UniProt Q9Y463); parameters: DiscoverX KINOMEscan scanMAX competition binding panel, single concentration, percent of control; dose or concentration left out as unconfirmed
Excerpt: as §1

LTK = LTK (Homo sapiens, UniProt P29376); parameters: DiscoverX KINOMEscan scanMAX competition binding panel, single concentration, percent of control; dose or concentration left out as unconfirmed
Excerpt: as §1

STK33 = STK33 (Homo sapiens, UniProt Q9BYT3); parameters: DiscoverX KINOMEscan scanMAX competition binding panel, single concentration, percent of control; dose or concentration left out as unconfirmed
Excerpt: as §1

Chain of PIK3CA(E542K) (P42336 whole entry E542K): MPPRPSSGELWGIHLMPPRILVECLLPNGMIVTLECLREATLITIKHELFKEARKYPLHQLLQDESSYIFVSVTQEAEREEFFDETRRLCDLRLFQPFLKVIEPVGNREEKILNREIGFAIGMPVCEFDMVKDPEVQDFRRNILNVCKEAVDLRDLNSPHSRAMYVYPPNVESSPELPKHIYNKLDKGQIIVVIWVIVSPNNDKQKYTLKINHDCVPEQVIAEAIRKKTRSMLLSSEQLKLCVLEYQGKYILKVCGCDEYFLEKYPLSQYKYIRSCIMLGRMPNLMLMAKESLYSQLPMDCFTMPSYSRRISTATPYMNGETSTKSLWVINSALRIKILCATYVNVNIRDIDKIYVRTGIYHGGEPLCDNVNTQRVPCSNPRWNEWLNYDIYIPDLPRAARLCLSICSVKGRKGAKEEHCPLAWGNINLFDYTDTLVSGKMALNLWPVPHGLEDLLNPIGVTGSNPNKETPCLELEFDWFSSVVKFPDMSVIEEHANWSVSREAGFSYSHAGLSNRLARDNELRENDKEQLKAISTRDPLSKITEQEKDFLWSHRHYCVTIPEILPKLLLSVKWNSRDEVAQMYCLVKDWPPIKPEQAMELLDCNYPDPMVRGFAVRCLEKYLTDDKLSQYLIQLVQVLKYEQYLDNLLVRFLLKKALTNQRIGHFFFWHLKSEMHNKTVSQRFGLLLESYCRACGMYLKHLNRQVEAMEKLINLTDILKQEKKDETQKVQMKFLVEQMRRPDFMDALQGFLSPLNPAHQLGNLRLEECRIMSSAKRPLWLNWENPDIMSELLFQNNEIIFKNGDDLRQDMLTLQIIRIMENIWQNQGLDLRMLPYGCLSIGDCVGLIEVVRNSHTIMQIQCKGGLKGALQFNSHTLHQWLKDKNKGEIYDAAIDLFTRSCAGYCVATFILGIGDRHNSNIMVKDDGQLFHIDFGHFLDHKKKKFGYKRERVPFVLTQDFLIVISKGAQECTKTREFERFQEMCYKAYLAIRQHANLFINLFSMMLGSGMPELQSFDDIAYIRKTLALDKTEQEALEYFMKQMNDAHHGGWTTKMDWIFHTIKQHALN
T2 sequence (Q13131 whole entry): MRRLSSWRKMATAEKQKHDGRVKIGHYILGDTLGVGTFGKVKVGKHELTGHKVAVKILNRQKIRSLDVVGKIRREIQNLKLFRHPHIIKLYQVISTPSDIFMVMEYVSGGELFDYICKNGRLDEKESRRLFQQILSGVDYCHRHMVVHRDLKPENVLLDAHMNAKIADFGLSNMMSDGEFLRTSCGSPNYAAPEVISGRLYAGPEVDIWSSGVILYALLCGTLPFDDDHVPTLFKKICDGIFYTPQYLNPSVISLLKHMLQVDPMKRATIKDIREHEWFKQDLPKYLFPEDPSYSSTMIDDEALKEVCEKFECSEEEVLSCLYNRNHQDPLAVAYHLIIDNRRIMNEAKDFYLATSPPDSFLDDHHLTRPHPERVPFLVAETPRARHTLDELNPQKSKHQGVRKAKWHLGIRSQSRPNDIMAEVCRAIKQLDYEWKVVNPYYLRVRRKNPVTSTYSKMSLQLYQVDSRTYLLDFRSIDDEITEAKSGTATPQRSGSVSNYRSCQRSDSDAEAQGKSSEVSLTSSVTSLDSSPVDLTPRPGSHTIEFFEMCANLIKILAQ
Chain of TNK1 (Q13470 whole entry): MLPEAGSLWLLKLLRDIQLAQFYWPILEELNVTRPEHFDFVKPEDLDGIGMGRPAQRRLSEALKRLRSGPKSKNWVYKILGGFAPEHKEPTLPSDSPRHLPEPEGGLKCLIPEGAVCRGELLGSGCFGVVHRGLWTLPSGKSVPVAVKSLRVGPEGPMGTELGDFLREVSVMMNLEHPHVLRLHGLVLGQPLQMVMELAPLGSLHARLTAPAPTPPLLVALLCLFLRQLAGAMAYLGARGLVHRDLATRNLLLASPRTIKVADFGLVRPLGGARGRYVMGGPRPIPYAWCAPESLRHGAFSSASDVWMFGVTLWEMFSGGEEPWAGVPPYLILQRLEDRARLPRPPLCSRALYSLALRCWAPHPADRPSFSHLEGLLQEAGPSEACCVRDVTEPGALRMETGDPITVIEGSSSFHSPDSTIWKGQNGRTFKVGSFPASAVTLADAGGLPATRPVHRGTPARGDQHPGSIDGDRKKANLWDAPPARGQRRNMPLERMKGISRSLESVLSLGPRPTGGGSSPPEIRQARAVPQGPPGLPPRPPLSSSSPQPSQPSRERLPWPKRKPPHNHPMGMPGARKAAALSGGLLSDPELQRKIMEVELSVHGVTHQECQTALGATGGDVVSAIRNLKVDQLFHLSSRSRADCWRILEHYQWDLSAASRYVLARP
Chain of KIT(V559D,T670I) (P10721 whole entry V559D/T670I): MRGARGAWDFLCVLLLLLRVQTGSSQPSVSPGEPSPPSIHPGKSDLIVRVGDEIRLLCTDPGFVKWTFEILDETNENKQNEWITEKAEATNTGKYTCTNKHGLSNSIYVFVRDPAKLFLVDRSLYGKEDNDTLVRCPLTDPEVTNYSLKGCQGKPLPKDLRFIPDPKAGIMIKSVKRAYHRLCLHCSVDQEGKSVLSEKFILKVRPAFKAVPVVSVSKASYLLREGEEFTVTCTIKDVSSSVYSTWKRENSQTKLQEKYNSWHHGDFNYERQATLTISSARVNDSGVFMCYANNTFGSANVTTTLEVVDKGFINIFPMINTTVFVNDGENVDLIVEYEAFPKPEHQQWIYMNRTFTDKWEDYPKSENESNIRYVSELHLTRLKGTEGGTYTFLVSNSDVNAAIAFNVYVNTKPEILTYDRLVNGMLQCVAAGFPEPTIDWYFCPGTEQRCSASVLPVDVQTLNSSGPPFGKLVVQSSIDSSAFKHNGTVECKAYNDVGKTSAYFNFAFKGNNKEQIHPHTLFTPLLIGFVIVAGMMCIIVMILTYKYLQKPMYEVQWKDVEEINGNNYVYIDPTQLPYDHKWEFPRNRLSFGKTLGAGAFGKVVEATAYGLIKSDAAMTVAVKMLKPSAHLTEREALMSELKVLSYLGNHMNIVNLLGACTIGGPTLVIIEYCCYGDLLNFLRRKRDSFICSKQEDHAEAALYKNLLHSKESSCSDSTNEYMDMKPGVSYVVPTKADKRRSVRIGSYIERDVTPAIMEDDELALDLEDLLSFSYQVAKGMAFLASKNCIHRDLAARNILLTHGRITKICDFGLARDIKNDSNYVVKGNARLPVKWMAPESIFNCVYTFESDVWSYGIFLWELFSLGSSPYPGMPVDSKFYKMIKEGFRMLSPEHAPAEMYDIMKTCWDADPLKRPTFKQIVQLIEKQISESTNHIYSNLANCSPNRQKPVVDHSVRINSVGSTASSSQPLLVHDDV
Chain of GRK2 (P25098 whole entry): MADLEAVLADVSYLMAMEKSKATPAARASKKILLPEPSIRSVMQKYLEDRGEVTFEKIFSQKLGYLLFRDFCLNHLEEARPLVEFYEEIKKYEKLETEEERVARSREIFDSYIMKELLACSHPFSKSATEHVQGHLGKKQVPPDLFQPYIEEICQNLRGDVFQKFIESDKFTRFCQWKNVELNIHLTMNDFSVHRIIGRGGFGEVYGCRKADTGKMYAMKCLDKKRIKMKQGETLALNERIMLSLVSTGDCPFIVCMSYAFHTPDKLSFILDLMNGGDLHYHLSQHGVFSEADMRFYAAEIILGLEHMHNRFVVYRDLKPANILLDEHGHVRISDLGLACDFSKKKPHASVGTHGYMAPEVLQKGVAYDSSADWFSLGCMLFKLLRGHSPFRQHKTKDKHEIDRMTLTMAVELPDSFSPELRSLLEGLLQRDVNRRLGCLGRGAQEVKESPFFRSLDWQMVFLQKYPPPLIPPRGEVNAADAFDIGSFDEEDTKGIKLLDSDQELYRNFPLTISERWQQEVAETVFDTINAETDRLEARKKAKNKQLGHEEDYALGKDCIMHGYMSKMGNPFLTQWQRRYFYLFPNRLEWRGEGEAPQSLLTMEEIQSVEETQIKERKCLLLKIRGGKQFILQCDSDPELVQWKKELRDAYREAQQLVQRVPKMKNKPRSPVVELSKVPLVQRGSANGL
T3 sequence (Q15831 whole entry): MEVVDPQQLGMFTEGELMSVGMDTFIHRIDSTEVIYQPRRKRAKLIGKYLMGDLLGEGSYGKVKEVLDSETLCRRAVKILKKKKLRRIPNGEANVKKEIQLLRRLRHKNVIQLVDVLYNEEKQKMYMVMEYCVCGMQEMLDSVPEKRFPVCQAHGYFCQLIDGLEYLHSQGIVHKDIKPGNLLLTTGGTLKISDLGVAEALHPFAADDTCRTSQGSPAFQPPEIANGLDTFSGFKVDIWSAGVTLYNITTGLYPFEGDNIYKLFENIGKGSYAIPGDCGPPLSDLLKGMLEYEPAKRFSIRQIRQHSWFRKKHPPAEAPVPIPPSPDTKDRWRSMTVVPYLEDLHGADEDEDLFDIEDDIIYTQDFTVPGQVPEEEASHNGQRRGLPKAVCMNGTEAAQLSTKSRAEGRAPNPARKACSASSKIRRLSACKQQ
T5 sequence (Q96Q40 whole entry): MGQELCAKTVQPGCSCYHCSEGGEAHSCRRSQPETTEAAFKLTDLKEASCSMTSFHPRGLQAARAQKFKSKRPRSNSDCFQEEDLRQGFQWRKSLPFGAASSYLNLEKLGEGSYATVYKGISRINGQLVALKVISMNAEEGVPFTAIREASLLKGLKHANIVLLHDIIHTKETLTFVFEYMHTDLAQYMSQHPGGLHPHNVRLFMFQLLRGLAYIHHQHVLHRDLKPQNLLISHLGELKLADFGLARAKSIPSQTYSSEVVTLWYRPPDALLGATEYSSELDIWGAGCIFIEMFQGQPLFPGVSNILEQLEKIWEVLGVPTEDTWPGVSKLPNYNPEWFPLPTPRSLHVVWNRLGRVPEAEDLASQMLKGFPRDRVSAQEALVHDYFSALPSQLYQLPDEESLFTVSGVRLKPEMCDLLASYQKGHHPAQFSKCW

## c1ccc2c(c1)Sc1ccccc1N2CCN1CCOCC1 [J54]
[1]
  remaining binding: 90%
AMPK-alpha1
  remaining binding: 100%
FGFR2
  remaining binding: 100%
FLT3(ITD,D835V)
  remaining binding: 57%
GRK2
  remaining binding: 93%
GRK7
  remaining binding: 100%
KIT(V559D,T670I)
  remaining binding: 100%
LKB1
  remaining binding: 89%
PFCDPK1(P.falciparum)
  remaining binding: 100%
PFTAIRE2
  remaining binding: 100%
PIK3CA(E542K)
  remaining binding: 100%
ROCK2
  remaining binding: 98%
TAOK2
  remaining binding: 100%
TLK2
  remaining binding: 23%
TNK1
  remaining binding: 99%
DYRK1B
  remaining binding: 54%
LTK
  remaining binding: 100%
STK33
  remaining binding: 100%
